Laboratory results: US20080090788A1, “Chemical Compounds” (priority 2005, published 2008)

What was measured:
NF-kB = NF-kB luciferase reporter activity in LPS-stimulated U937-kBluc cells; format: cell-based, human; conditions: for IC50: Homo sapiens, U937-kBluc cells, LPS 0.3 μg/ml, 6 hours, mean of duplicate determinations ±SD, read-out: IC50 for inhibition of LPS-induced NF-kB activity; for average luciferase activity, % of the activity in DMSO treated cells: 2 mM, ±SD
Method: U937-kBluc cells were cultured in a 96 well plate (2×10^4 cells in 100 μl in each well) and stimulated with 0.3 μg/ml LPS (lipopolysaccaride; Sigma Aldrich). After 6 hours, cells were collected and luciferase activity determined using the luclite reagent (Perkin Elmer UK, Beaconsfield, UK) and a Packard TopCount (Perkin Elmer), as described by the manufacturer. To determine the effect of SFZ and analogues, various concentrations of each compound or an equivalent amount of DMSO as a solvent control were added 1 hour prior to addition of LPS. Each determination was made in triplicate. A cell line containing an NF-kB reporter construct was used to determine the effects of SFZ analogues on NF-kB activity. Cells were treated with LPS to induce NF-kB activity in the presence or absence of each compound, or DMSO as a solvent control, and luciferase activity analysed as a measure of NF-kB dependent transcription (FIG. 1). […] U937-kBluc cells were treated with LPS to activate NF-kB in the presence of increasing concentrations of SFZ, derivatives (3a-f), or DMSO as a solvent control. For each concentration of compound, the percentage inhibition of luciferase activity relative to cells treated with an equivalent amount of DMSO was calculated. (A) Representative dose response experiment (♦, 3a; ▪, SFZ). Each data point is the mean of triplicate samples (±SEM). (B) Detailed dose response assays were performed for compounds which gave >50% inhibition at 2 mM. The mean IC50 value (±SD) for inhibition of LPS-induced NF-kB activity is derived from 2 independent experiments, each performed in triplicate.

ARH77 cells = format: cell-based; conditions: human, 4 days, 2 mM
Method: To determine the growth inhibitory effects of compounds 2a, SPY, 2c, 2d, ARH77 cells (2×10^4 cells in 100 μl in each well of a 96 well plate) were incubated with each compound or an equivalent amount of DMSO. Four days later, cell growth was determined using the Aqueous One Solution Cell Proliferation Assay (MTS) (Promega) according to the manufacturer's instructions. Each determination was made in triplicate. Relative cell growth was determined by subtracting the absorbance of wells containing medium and lacking cells, and dividing by absorbance values derived from cells treated with an equivalent volume of DMSO.
Reduction of SFZ in the gut to give SPY is thought to be responsible for much of the toxicity associated with therapy. The putative reduction products of the novel SFZ derivatives were associated with increased or decreased toxicity was investigated. ARH77 cells were treated for 4 days with compounds 2a (i.e., putative reduction product of 3a and 3b), 2c (putative reduction product of 3d), and 2d (putative reduction product of 3e and 3f), and SPY (reduction product of SFZ and 3c). Cell growth was determined using an MTS assay. The percent growth inhibition at 2 mM (FIG. 6) was measured. […] Cytotoxicity of 2a and 2c was slightly less than SPY with 27±8% and 24±3% growth inhibition, respectively. 2d was essentially non-toxic in this assay with −6±16% growth inhibition. The ability of compounds 2a, 2c and 2d to interfere with NF-kB activity in LPS treated U937-kBluc cells was also tested.
ARH77 cells were incubated with 2 mM of 2a, 2c, 2d, SPY or DMSO as a solvent control. After 4 days, cell growth was determined using an MTS assay. Percentage growth inhibition for each compound relative to DMSO treated cells was determined. Mean growth inhibition is shown (±SD). Data are derived from two separate experiments, each performed in triplicate.

| IC50 (NF-kB) [µM] | SMILES | percent growth inhibition (ARH77 cells) [%] | average luciferase activity, % of the activity in DMSO treated cells (NF-kB) [%] |
| --- | --- | --- | --- |
| 1240 ± 106 | CNS(=O)(=O)c1ccc(/N=N/c2ccc(O)c(C(=O)O)c2)cc1 [Compound 3d, 2-hydroxy-5-(4-methylsulfamoyl-phenylazo)-benzoic acid] |  |  |
|  | Nc1ccc(S(=O)(=O)NCc2ccc(C(F)(F)F)cc2)cc1 [Compound 2d] | −6±16 |  |
| > 2000 | Nc1ccc(S(=O)(=O)Nc2ccccn2)cc1 [SPY, sulfapyridine, reference compound] |  | 151±71 |
|  | CNS(=O)(=O)c1ccc(N)cc1 [Compound 2c] | 24±3 |  |
| > 2000 | Nc1ccc(O)c(C(=O)O)c1 [Compound 5-ASA, 5-amino salicylic acid, reference compound] |  | 121±32 |
| 1100 ± 40 | Cc1cc(/N=N/c2ccc(S(=O)(=O)Nc3ccccn3)cc2)cc(C(=O)O)c1O [Compound 3c, 2-hydroxy-3-methyl-5-[4-(pyridin-2-ylsulfamoyl)-phenylazo]benzoic acid] |  |  |
| > 2000 | COc1ccc(CNS(=O)(=O)c2ccc(/N=N/c3ccc(O)cc3)cc2)cc1 [Compound 3b] |  | 87.5±3.3 |
|  | COc1ccc(CNS(=O)(=O)c2ccc(N)cc2)cc1 [Compound 2a, N-(p-methoxybenzyl)-4-aminobenzenesulfonamide] | 27±8 |  |
